Our source for the IC50 values is ChEMBL document CHEMBL4184275 (Bioorg Med Chem Lett, 2018).

Bridge positions count the residues as written; N and C are the ends. Peptide text beside a SMILES is read from it.

The subject of experiment [1] is HL-60. The experiment in a line: cells. To be noted: Homo sapiens.
Description: Antiproliferative activity against human HL60 cells
Experiment [2] has as its target T1, Prolyl endopeptidase (Homo sapiens, UniProt P48147).
T1 sequence (P48147 whole entry): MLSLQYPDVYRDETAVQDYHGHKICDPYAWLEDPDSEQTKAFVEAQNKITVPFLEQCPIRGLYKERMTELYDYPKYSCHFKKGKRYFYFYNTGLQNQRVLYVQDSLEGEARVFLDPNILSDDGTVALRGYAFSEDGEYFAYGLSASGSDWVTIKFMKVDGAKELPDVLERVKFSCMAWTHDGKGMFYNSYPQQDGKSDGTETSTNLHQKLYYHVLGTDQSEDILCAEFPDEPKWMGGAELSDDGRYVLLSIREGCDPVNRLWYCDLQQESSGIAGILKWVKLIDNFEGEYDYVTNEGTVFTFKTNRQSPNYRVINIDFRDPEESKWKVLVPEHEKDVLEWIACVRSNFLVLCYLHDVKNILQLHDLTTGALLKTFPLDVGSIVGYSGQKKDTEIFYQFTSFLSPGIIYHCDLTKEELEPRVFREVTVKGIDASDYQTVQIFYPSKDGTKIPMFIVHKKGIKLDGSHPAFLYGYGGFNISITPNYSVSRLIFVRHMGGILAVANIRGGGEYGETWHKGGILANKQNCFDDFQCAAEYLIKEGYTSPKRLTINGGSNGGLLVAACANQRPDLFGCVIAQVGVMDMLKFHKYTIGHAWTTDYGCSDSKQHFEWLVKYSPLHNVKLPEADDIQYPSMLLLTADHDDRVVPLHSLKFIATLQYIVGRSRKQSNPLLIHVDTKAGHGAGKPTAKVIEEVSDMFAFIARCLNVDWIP
The experiment in a line: Inhibition of prolyl oligopeptidase (unknown origin).

Experiment [3] has as its target T2, Prolyl oligopeptidase family protein (Flavobacterium psychrophilum (strain JIP02/86 / ATCC 49511), UniProt A6H249).
T2 sequence (A6H249 whole entry): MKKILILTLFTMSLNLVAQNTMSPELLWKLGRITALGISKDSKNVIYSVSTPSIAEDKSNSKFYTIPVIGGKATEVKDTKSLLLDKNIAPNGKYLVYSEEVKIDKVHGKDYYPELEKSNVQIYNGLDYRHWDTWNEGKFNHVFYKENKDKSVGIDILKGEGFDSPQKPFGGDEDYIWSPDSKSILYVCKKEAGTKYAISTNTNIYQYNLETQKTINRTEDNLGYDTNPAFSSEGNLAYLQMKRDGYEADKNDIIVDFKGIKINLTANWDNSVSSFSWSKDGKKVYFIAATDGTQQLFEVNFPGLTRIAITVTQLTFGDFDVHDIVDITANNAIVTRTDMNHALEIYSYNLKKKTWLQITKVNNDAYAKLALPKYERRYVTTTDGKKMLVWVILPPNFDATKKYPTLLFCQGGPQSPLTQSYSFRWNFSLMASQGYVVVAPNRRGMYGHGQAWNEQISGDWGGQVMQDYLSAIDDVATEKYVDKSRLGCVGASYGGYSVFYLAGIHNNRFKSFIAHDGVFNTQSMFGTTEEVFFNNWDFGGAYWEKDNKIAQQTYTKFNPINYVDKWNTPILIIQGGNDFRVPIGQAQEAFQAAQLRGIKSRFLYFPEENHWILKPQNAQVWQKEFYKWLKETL
The experiment in a line: Inhibition of Flavobacterium POP preincubated for 5 mins followed by Z-Gly-Pro-pNA substrate measured after 30 mins.

Experiment [4] has as its system MCF7. The experiment in a line: Antiproliferative activity against human MCF7 cells. The experiment is classed as functional, cell-based.

For orientation: IC50 means the midpoint of a concentration-inhibition curve. As for `CC[C@@]1(O)C(=O)OCc2c1cc1n(c2=O)Cc2cc3ccccc3nc2-1` [CAMPTOTHECIN], the IC50 in experiment [1] was found to be 6.7 nM.

On to `CC[C@H](C)[C@H](NC(=O)[C@H](Cc1ccccc1)NC(=O)[C@@H](NC(=O)[C@H](Cc1cnc[nH]1)NC(=O)CNC(=O)CNC(=O)[C@H](Cc1ccccc1)NC(=O)[C@H](CC(C)C)NC(=O)[C@@H]1CC(=O)NCC(=O)N[C@@H](Cc2ccc(O)cc2)C(=O)N2CCC[C@H]2C(=O)N[C@@H](Cc2c[nH]c3ccccc23)C(=O)N[C@@H](Cc2c[nH]c3ccccc23)C(=O)N[C@@H](CC(=O)O)C(=O)N[C@@H](Cc2ccc(O)cc2)C(=O)N[C@@H](CCCNC(=N)N)C(=O)N1)[C@@H](C)O)C(=O)N[C@@H](CO)C(=O)N1CCC[C@H]1C(=O)O` (GYPWWDYRDLFGGHTFISP-OH; lactam N-9), for which the IC50 in experiment [2] is 950 nM; in experiment [1], more than 20000 nM.

As for `CC(=O)Oc1c(OC(C)=O)c2c3cc(O)c(O)cc3oc2c2oc3cc(O)c(O)cc3c12`, the figures for the IC50 in experiment [3], in experiment [4] and in experiment [1] were 770 nM, 26900 nM and 2000 nM, respectively.

Turning to `CC(=O)Oc1c2oc3cc(O)c(O)cc3c2c(OC(C)=O)c2oc3cc(O)c(O)cc3c12` [POLYOZELLIN], the IC50 in experiment [3] was determined as 1200 nM; in experiment [4], 35100 nM; in experiment [1], 1100 nM.
